Assay results reported in paper PMC4026384, “Antibacterial Activity of THAM Trisphenylguanide against Methicillin-Resistant Staphylococcus aureus” (PLoS ONE, 2014).
Converted amounts (≈) assume the structure as drawn. “Also recorded” adds a separate entry of the source. Like-named read-outs stand apart in the source and are kept apart here.

What was measured:
MRSA = test: Cytoplasmic leakage & bacteriolysis assay; format: cell-based, Staphylococcus aureus; details: 1× to 4×MIC, over the 3 hour period
Procedure: Bacteria were cultured to mid-log phase (OD600 ∼0.4) in LB media with shaking. Bacteria were then harvested and resuspended in PBS to a concentration of ∼10^8 CFU/mL. […] Bacteria were monitored over time for cytoplasmic leakage via A260 measurements and for cell viability. For A260 readings, sample aliquots were centrifuged for 5 min at 10,000×g at room temperature to remove cellular debris. Viability was monitored by determining the CFU/mL during the first 3 hours post treatment as described above for the kill curve assays.

MRSA strain LAC, USA300 = test: Minimum inhibitory concentration (microdilution); format: cell-based, Staphylococcus aureus; details: for MIC of control antibiotics: assay described in Material and Methods, controls of the MRSA leakage assay (Figure S2)
Procedure: (§1) Minimum inhibitory concentration (MIC) values were determined for those compounds showing the most antibacterial activity in the bacterial viability assays (see Supplemental Materials) against each of the strains of bacteria using a microdilution method in 96 well plates with LB media according to guidelines published by the British Society for Antimicrobial Chemotherapy. Minimum bactericidal concentrations (MBC) were determined by plating 10 µL and 100 µL from each well showing no signs of growth after overnight incubation of the MIC plates and determining the minimum concentration showing a 3-log reduction of viable bacteria. MIC and MBC were also determined in cation-adjusted Mueller-Hinton broth (Hardy Diagnostics, Santa Maria, CA) for some compounds and strains.

E. faecalis V583 = test: Bacterial viability assay; format: cell-based, Enterococcus faecalis; details: one hour in PBS, CFU, ± SEM
Procedure: (§2) Supplementary file pone.0097742.s003.doc: Table S1 Bacterial viability assays. Bacteria were grown at 37°C to mid-log phase (OD600 ∼0.4). The bacteria were diluted to approximately 10^4 to 10^5 colony forming units (CFU) per milliliter and added to a solution of phosphate buffered saline (PBS, 16 mM phosphate, 0.14 M NaCl, pH 7.2) containing the compound at varied concentrations. Samples were incubated at 37°C for one hour and then plated on Luria Bertani (LB) agar at appropriate dilutions in PBS. The plates were incubated overnight at 37°C and colonies enumerated the following day. IC50s were calculated from graphs of CFU as a function of compound concentration. Chlorhexidine was used as a positive control. […] (DOC) Click here for additional data file.
(§3) Bacterial viability assays. Bacteria were grown at 37°C to mid-log phase (OD600 ~0.4). The bacteria were diluted to approximately 10^4 to 10^5 colony forming units (CFU) per milliliter and added to a solution of phosphate buffered saline (PBS, 16 mM phosphate, 0.14 M NaCl, pH 7.2) containing the compound at varied concentrations. Samples were incubated at 37°C for one hour and then plated on Luria Bertani (LB) agar at appropriate dilutions in PBS. The plates were incubated overnight at 37°C and colonies enumerated the following day. IC50s were calculated from graphs of CFU as a function of compound concentration. Chlorhexidine was used as a positive control.

E. faecalis MSU#10 = test: Bacterial viability assay; format: cell-based, Enterococcus faecalis; details: E. faecalis MSU#10, one hour in PBS, CFU, ± SEM, read-out: IC50
Procedure: as §2, §3

E. coli K91 = test: Bacterial viability assay; format: cell-based, Escherichia coli; details: one hour in PBS, CFU, ± SEM
Procedure: as §2, §3

[1] = tested on: HaCaT human keratinocytes; test: Cell toxicity assay (MTS); format: cell-based; details: for CC50: MTS assay, concentration which killed 50% of the cells
Procedure: (§4) The HaCaT cell line was grown in Epilife medium (MEPI500Ca) with human keratinocyte growth supplement (Invitrogen, San Diego, CA). Both types of cells were harvested using Tryspin/EDTA and diluted to 1×10^5 cells per well in a 96-well plate. Ten concentrations covering five orders of magnitude were tested with six replicates per concentration. […] MTS/PMS solution (Promega, Madison, WI) was added to the wells and absorbance was measured at 490 nm two to four hours later. Data was analyzed using GraphPad Prism version 5.0 (GraphPad Software, La Jolla, CA) using a variable slope inhibition dose response curve.

[2] = tested on: human breast cancer cell line MDA-MB-231; test: Cell toxicity assay (MTS); format: cell-based; details: MDA-231; for CC50: MTS assay, concentration which killed 50% of the cells
Procedure: as §4

P. aeruginosa PA01 = test: Bacterial viability assay; format: cell-based, Pseudomonas aeruginosa; details: one hour in PBS, CFU, ± SEM
Procedure: as §2, §3

A. baumannii ATCC 19606 = test: Bacterial viability assay; format: cell-based, Acinetobacter baumannii; details: one hour in PBS, CFU, ± SEM
Procedure: as §2, §3

[3] = tested on: A. baumannii ATCC BAA1605; test: Bacterial viability assay; format: cell-based, Acinetobacter baumannii; details: one hour in PBS, CFU, ± SEM
Procedure: as §2, §3

MRSA USA300 = test: Bacterial viability assay; format: cell-based, Staphylococcus aureus; details: one hour in PBS, CFU, ± SEM
Procedure: as §2, §3

S. aureus RN4220 = test: Bacterial viability assay; format: cell-based, Staphylococcus aureus; details: one hour in PBS, CFU, ± SEM
Procedure: (§5) Supplementary file pone.0097742.s003.doc: Table S1 Bacterial viability assays. Bacteria were grown at 37°C to mid-log phase (OD600 ∼0.4). The bacteria were diluted to approximately 10^4 to 10^5 colony forming units (CFU) per milliliter and added to a solution of phosphate buffered saline (PBS, 16 mM phosphate, 0.14 M NaCl, pH 7.2) containing the compound at varied concentrations. Samples were incubated at 37°C for one hour and then plated on Luria Bertani (LB) agar at appropriate dilutions in PBS. The plates were incubated overnight at 37°C and colonies enumerated the following day. IC50s were calculated from graphs of CFU as a function of compound concentration. Chlorhexidine was used as a positive control. Included are those guanide (G), biguanide (BG), phenylguanide (ΦG) compounds that had some antibacterial activity in an initial screen at 30 and 100 µM, as well as their and parent amines. Compounds synthesized from 1,4-butanediamine, 1,6-hexanediamine, trisethylaminomelamine, trisbutylaminomelamine, and the dendrimer PAMAM (G0) were not active against E. coli, P aeruginosa, or S. aureus so they were not tested against the remaining bacteria (data not shown). (DOC) Click here for additional data file.
as §5, with “Bacterial” for “Supplementary file pone.0097742.s003.doc: Table S1 Bacterial”, “~0.4).” for “∼0.4).”, “μM,” for “µM,”, “shown).” for “shown). (DOC) Click here for additional data file.”

[4] = Cell toxicity assay (MTS); format: cell-based, human; details: human, MTS assay, concentration which killed 50% of the cells
Procedure: as §4

[5] = tested on: Enterococcus faecalis ATCC V583; test: Minimum inhibitory concentration (microdilution); format: cell-based; details: E. faecalis V583; LB media; median of at least 3 determinations
Procedure: as §1

[6] = tested on: Pseudomonas aeruginosa (strain PA01); test: Minimum inhibitory concentration (microdilution); format: cell-based; details: P. aeruginosa PA01; LB media; median of at least 3 determinations
Procedure: as §1

[7] = tested on: Staphylococcus aureus RN4220; test: Minimum inhibitory concentration (microdilution); format: cell-based; details: S. aureus RN4220; LB media; median of at least 3 determinations
Procedure: as §1

[8] = tested on: Escherichia coli (strain K91); test: Minimum inhibitory concentration (microdilution); format: cell-based; details: E. coli K91; LB media; median of at least 3 determinations
Procedure: as §1

[9] = tested on: Enterococcus faecalis MSU#10; test: Minimum inhibitory concentration (microdilution); format: cell-based; details: E. faecalis MSU#10; LB media; median of at least 3 determinations
Procedure: as §1

[10] = tested on: Acinetobacter baumannii ATCC 19606; test: Minimum inhibitory concentration (microdilution); format: cell-based; details: A. baumannii ATCC 19606; LB media; median of at least 3 determinations
Procedure: as §1

[11] = MDA-MB-231 breast cancer cells (ATCC HTB-26), MDA-231
[12] = Acinetobacter baumannii, ATCC19606, 1 h
[13] = Acinetobacter baumannii, ATCCBAA1605, 1 h

Compound	IC50 (E. faecalis V583) [µM]	IC50 (E. faecalis MSU#10) [µM]	IC50 (E. coli K91) [µM]	Relative to chlorhexidine (factor by which cytotoxicity was reduced) [1]	CC50 [1] [µg/mL]	Relative to chlorhexidine (factor by which cytotoxicity was reduced) [2]	CC50 [2] [µg/mL]	IC50 (P. aeruginosa PA01) [µM]	IC50 (A. baumannii ATCC 19606) [µM]	IC50 [3] [µM]	IC50 (MRSA USA300) [µM]	IC50 (S. aureus RN4220) [µM]	other results
CC1(C)S[C@@H]2[C@H](NC(=O)[C@H](N)c3ccccc3)C(=O)N2[C@H]1C(=O)O [Ampicillin]	–	–	–	–	–	–	–	–	–	–	–	–	change in A260 of culture supernatant (cytoplasmic leakage), control antibiotics (MRSA): no increase in A260; also recorded: Significant increases in A260 were not seen; MIC of control antibiotics (MRSA strain LAC, USA300): 32 µg/mL
N=C(NCCCCN(CCCNC(=N)Nc1ccccc1)C(=N)Nc1ccccc1)Nc1ccccc1 [Spermidine-3ΦG]	> 100	> 100	3.2 ± 0.9	210	400 (≈ 801 µM)	170	430 (≈ 861 µM)	> 100	> 100	> 100	> 100	> 100	–
NCCCCNCCCN [Spermidine]	–	–	–	>79	–	8.5	–	–	–	–	–	–	IC50 (E. faecalis V583; Enterococcus faecalis, 1 h): > 100 µM; IC50 (E. faecalis MSU#10; Enterococcus faecalis, 1 h): > 100 µM; IC50 (E. coli K91; Escherichia coli, 1 h): > 100 µM; CC50 ([4]; HaCaT keratinocytes): > 150 µg/mL; CC50 [4, 11]: 22 µg/mL (≈ 151 µM); IC50 (P. aeruginosa PA01; Pseudomonas aeruginosa, 1 h): > 100 µM; IC50 (A. baumannii ATCC 19606; [12]): > 100 µM; IC50 [3, 13]: > 100 µM; IC50 (MRSA USA300; Staphylococcus aureus, 1 h): > 100 µM; IC50 (S. aureus RN4220; Staphylococcus aureus, 1 h): > 100 µM
N=C(NCCCN(CCCCN(CCCNC(=N)Nc1ccccc1)C(=N)Nc1ccccc1)C(=N)Nc1ccccc1)Nc1ccccc1 [Spermine-4ΦG]	> 100	> 100	23 ± 16	56	110 (≈ 163 µM)	>43	>110	> 100	≥ 100	≥ 100	> 100	–	–
NCCCNCCCCNCCCN [Spermine]	–	–	–	>110	–	3.7	–	–	–	–	–	–	IC50 (E. faecalis V583; Enterococcus faecalis, 1 h): > 100 µM; IC50 (E. faecalis MSU#10; Enterococcus faecalis, 1 h): > 100 µM; IC50 (E. coli K91; Escherichia coli, 1 h): > 100 µM; CC50 ([4]; HaCaT keratinocytes): > 200 µg/mL; CC50 [4, 11]: 10 µg/mL (≈ 49.4 µM); IC50 (P. aeruginosa PA01; Pseudomonas aeruginosa, 1 h): ≥ 100 µM; IC50 (A. baumannii ATCC 19606; [12]): ≥ 100 µM; IC50 [3, 13]: 79 ± 24 µM; IC50 (MRSA USA300; Staphylococcus aureus, 1 h): > 100 µM; IC50 (S. aureus RN4220; Staphylococcus aureus, 1 h): > 100 µM
N=C(N)NCCCCCCNc1nc(NCCCCCCNC(=N)N)nc(NCCCCCCNC(=N)N)n1 [THAM-3G]	> 100	> 100	31 ± 12	33	63 (≈ 115 µM)	29	74 (≈ 135 µM)	14 ± 3	23 ± 14	14 ± 4	> 100	> 100	–
NCCCCCCNc1nc(NCCCCCCN)nc(NCCCCCCN)n1 [THAM]	> 100	> 100	> 100	100	200 (≈ 472 µM)	>290	>770	> 100	> 100	> 100	> 100	> 100	–
N=C(NCCCCCCCCNc1nc(NCCCCCCCCN)nc(NCCCCCCCCNC(=N)Nc2ccccc2)n1)Nc1ccccc1 [TOAM-2ΦG]	11 ± 3	6.1 ± 4.9	0.75 ± 0.09	1.6	3.1 (≈ 4.17 µM)	–	–	1.6 ± 0.4	0.64 ± 0.19	0.96 ± 0.02	0.6 ± 0.32	2.4 ± 0.1	–
N=C(N)NCCCCCCCCNc1nc(NCCCCCCCCNC(=N)N)nc(NCCCCCCCCNC(=N)N)n1 [TOAM-3G]	23 ± 14	5 ± 1.9	0.68 ± 0.04	1.9	3.6 (≈ 5.68 µM)	–	–	0.85 ± 0.19	2.6 ± 1.1	0.92 ± 0.1	1.5 ± 0.6	4.7 ± 0.1	MIC (MRSA strain LAC, USA300; MRSA USA300, LB media, median of at least 3 determinations): 1 µg/mL (≈ 1.58 µM); MIC [5]: >64 µg/mL; MIC [6]: 16 µg/mL (≈ 25.2 µM); MIC [7]: 2 µg/mL (≈ 3.15 µM); MIC [8]: 8 µg/mL (≈ 12.6 µM); MIC [9]: 16 µg/mL (≈ 25.2 µM); MIC [10]: >64 µg/mL
CNC(C)C1CCC(N)C(OC2C(N)CC(N)C(OC3OCC(C)(O)C(NC)C3O)C2O)O1 (stereo not drawn) [gentamicin]	–	–	–	–	–	–	–	–	–	–	–	–	change in A260 of culture supernatant (cytoplasmic leakage), control antibiotics (MRSA): no increase in A260; also recorded: Significant increases in A260 were not seen; MIC of control antibiotics (MRSA strain LAC, USA300): 0.5 µg/mL
